In patent US10144742B2 (Millennium Pharmaceuticals, Inc., priority 2014, dated 2018):
Read-outs that look alike come from different tables or passages of the source.

Experiments:
hNAMPT protein = hNAMPT protein (Homo sapiens (Human), UniProt P43490); assay: NAMPT enzyme assay (TR-FRET/HTRF, BodiPY ligand, anti 6His-Tb); format: binding; conditions: for IC50: read-out: IC50; for inhibition at 1 µM: read-out: Percent Inhibition
In short: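 TR-FRET binding assay in which His-tagged human NAMPT with anti-6His-Tb is displaced by compound from a BodiPY ligand, incubated 1 h at rt in the dark. Excitation was at 320 nm, with the 520/486 nm emission ratio read. IC50 was fitted from inhibition relative to DMSO controls.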

PC3 cells = assay: PC3 growth inhibition (Cell-titer glo, 72 hours); format: cell-based; conditions: Homo sapiens, PC-3, PC3 cells, 72 hours, Cell-titer glo, read-out: Percent Inhibition (PC3 growth inhibition); for inhibition at 1.667 µM: compound concentration 1.667 μM; for inhibition at 1 µM: compound concentration 1 μM
In short: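 PC3 cells in RPMI1640 seeded overnight at 37 °C, 5% CO2, then exposed to compound diluted in AIM serum-free medium for 72 h. Viability by CellTiter-Glo luminescence vs DMSO controls; single-concentration % remaining viability (1 μM or 1.667 μM), or GI50/LD50 from curves.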

[1] = NAMPT inhibition at compound concentration 1 μM
[2] = NAMPT inhibition, IC50 range class

Sequence of hNAMPT protein (P43490 whole entry): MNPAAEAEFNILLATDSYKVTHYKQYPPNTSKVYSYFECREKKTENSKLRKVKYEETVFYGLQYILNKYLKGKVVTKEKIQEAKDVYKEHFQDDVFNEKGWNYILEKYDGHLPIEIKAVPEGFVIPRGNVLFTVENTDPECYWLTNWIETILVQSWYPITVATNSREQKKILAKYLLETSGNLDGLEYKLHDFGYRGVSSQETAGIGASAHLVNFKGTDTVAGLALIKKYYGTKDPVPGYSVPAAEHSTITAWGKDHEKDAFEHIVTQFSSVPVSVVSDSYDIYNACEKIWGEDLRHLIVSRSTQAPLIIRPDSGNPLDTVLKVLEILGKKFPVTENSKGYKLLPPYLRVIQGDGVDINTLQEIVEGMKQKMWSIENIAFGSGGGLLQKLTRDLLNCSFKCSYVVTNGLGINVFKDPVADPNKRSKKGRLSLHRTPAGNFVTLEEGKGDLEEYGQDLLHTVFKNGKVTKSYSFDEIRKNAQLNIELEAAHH

Compound | IC50 (hNAMPT protein; NAMPT IC50 range class) [nM] | inhibition at 1 µM (hNAMPT protein; compound concentration 1 μM) [%] | inhibition at 1.667 µM (PC3 cells) [%] | inhibition at 1 µM (hNAMPT protein; [1]) [%] | IC50 (hNAMPT protein; [2]) [nM] | inhibition at 1 µM (PC3 cells) [%]
N#Cc1ccc(Cl)c(-c2nc3cc(C(=O)NCCCc4ncc[nH]4)ccc3nc2-c2ccc(F)cc2)c1 [Compound I-393, 3-(2-chloro-5-cyanophenyl)-2-(4-fluorophenyl)-N-[3-(1H-imidazol-2-yl)propyl]quinoxaline-6-carboxamide] | < 100 | 98 | 2 |  |  | 
O=C(NCCCc1ncc[nH]1)c1ccc2nc(-c3ccc(F)cc3)c(-c3ccc(Cl)s3)nc2c1 [Compound I-499, 3-(5-chloro-2-thienyl)-2-(4-fluorophenyl)-N-[3-(1H-imidazol-2-yl)propyl]quinoxaline-6-carboxamide] |  |  | 2 | 98 | < 100 | 
NC(=O)c1cccc(-c2nc3ccc(C(=O)NCCCn4ccnc4)cc3nc2-c2ccccc2)c1 [Compound I-235, 2-(3-carbamoylphenyl)-N-[3-(1H-imidazol-1-yl)propyl]-3-phenylquinoxaline-6-carboxamide] | 100 to 500 | 79 |  |  |  | -8
O=C(c1ccc2nc(-c3ccc(F)cc3)c(-c3ccc(F)cc3)nc2c1)N1CCn2ccnc2C1 [Compound I-56, [2,3-bis(4-fluorophenyl)quinoxalin-6-yl](5,6-dihydroimidazo[1,2-a]pyrazin-7(8H)-yl)methanone] | 2000 to 10000 | 33 |  |  |  | 104
COc1cc(-c2nc3cc(C(=O)NCc4ccc5nccn5c4)ccc3nc2-c2ccc(F)cc2)c(F)cn1 [Compound I-333, 3-(5-fluoro-2-methoxypyridin-4-yl)-2-(4-fluorophenyl)-N-(imidazo[1,2-a]pyridin-6-ylmethyl)quinoxaline-6-carboxamide] | 100 to 500 | 63 | 0 |  |  | 
N#Cc1ccccc1-c1nc2ccc(C(=O)NCCCn3ccnc3)cc2nc1-c1ccccc1 [Compound I-54, 2-(2-cyanophenyl)-N-[3-(1H-imidazol-1-yl)propyl]-3-phenylquinoxaline-6-carboxamide] | 500 to 1000 | 50 |  |  |  | -7
COC1CCN(c2nc3ccc(C(=O)NCCCc4ncc[nH]4)cc3nc2-c2ccc(F)cc2)C1 (stereo not drawn) [Compound I-457, 3-(4-fluorophenyl)-N-[3-(1H-imidazol-2-yl)propyl]-2-(3-methoxypyrrolidin-1-yl)quinoxaline-6-carboxamide] |  |  | 2 | 98 | < 100 | 
Cc1ncsc1-c1nc2cc(C(=O)NCCCc3ncc[nH]3)ccc2nc1-c1ccc(F)cc1 [Compound I-494, 2-(4-fluorophenyl)-N-[3-(1H-imidazol-2-yl)propyl]-3-(4-methyl-1,3-thiazol-5-yl)quinoxaline-6-carboxamide] |  |  | 3 | > 99 | < 100 | 
CC(C)Oc1c2c(nn1C)CCN(C(=O)c1ccc3nc(-c4ccc(F)cc4)c(-c4ccc(F)cc4)nc3c1)C2 [Compound I-284, [2,3-bis(4-fluorophenyl)quinoxalin-6-yl](3-isopropoxy-2-methyl-2,4,6,7-tetrahydro-5H-pyrazolo[4,3-c]pyridin-5-yl)methanone] | 2000 to 10000 | 14 |  |  |  | 98
O=C(NCCc1ncc[nH]1)c1ccc2nc(-c3ccc(F)cc3)c(-c3cccc(Cl)c3)nc2c1 [Compound I-376, 3-(3-chlorophenyl)-2-(4-fluorophenyl)-N-[2-(1H-imidazol-2-yl)ethyl]quinoxaline-6-carboxamide] | 500 to 1000 | 30 | 52 |  |  | 
O=C(NCCCn1ccnc1)c1ccc2nc(-c3cccs3)c(-c3ccccc3)nc2c1 [Compound I-247, N-[3-(1H-imidazol-1-yl)propyl]-3-phenyl-2-(2-thienyl)quinoxaline-6-carboxamide] | 500 to 1000 | 58 |  |  |  | -5
CN1CCN(c2nc3ccc(C(=O)NCCCn4ccnc4)cc3nc2-c2ccccc2)CC1 [Compound I-128, N-[3-(1H-imidazol-1-yl)propyl]-2-(4-methylpiperazin-1-yl)-3-phenylquinoxaline-6-carboxamide] | 500 to 1000 | 60 |  |  |  | -7
O=C(NCc1ccc2cn[nH]c2c1)c1ccc2nc(N3CCCCC3)c(-c3ccc(F)cc3)nc2c1 [Compound I-133, 3-(4-fluorophenyl)-N-(1H-indazol-6-ylmethyl)-2-(piperidin-1-yl)quinoxaline-6-carboxamide] | 100 to 500 | 68 | 3 |  |  | 
CC(C)Sc1nc2ccc(C(=O)NCCCc3ncc[nH]3)cc2nc1-c1ccc(F)cc1 [Compound I-375, 3-(4-Fluorophenyl)-N-[3-(1H-imidazol-2-yl)propyl]-2-(isopropylsulfanyl)quinoxaline-6-carboxamide] | 100 to 500 | 80 | 2 |  |  | 
O=C(NCCCn1ccnc1)c1ccc2nc(N3CCC4(CC3)Cc3ccccc3O4)c(-c3ccccc3)nc2c1 [Compound I-268, N-[3-(1H-imidazol-1-yl)propyl]-3-phenyl-2-(1′H,3H-spiro[1-benzofuran-2,4′-piperidin]-1′-yl)quinoxaline-6-carboxamide] | 1000 to 2000 | 63 |  |  |  | -6
C#Cc1ccc(-c2nc3cc(C(=O)NCCCc4ncc[nH]4)ccc3nc2-c2ccc(F)cc2)cc1 [Compound I-416, 3-(4-ethynylphenyl)-2-(4-fluorophenyl)-N-[3-(1H-imidazol-2-yl)propyl]quinoxaline-6-carboxamide] |  |  | 2 | 76 | 100 to 500 | 
O=C(NCc1nc2cnccc2[nH]1)c1ccc2nc(-c3ccc(F)cc3)c(-c3ccc(F)cc3)nc2c1 [Compound I-464, 2,3-bis(4-fluorophenyl)-N-(1H-imidazo[4,5-c]pyridin-2-ylmethyl)quinoxaline-6-carboxamide] |  |  | 0 | > 99 | < 100 | 
CN1CCCCC1COc1nc2ccc(C(=O)NCCCc3ncc[nH]3)cc2nc1-c1ccc(F)cc1 (stereo not drawn) [Compound I-346, 3-(4-fluorophenyl)-N-[3-(1H-imidazol-2-yl)propyl]-2-[(1-methylpiperidin-2-yl)methoxy]quinoxaline-6-carboxamide] | < 100 | 98 | 3 |  |  | 
O=C(NCCCc1ncc[nH]1)c1ccc2nc(-c3ccc(F)cc3)c(-c3ccc4nccn4c3)nc2c1 [Compound I-417, 2-(4-fluorophenyl)-N-[3-(1H-imidazol-2-yl)propyl]-3-(imidazo[1,2-a]pyridin-6-yl)quinoxaline-6-carboxamide] |  |  | 2 | 81 | 100 to 500 | 
O=C(NCCCc1ncc[nH]1)c1ccc2nc(OCC3CCCO3)c(-c3ccc(F)cc3)nc2c1 (stereo not drawn) [Compound I-438, 3-(4-fluorophenyl)-N-[3-(1H-imidazol-2-yl)propyl]-2-(tetrahydrofuran-2-ylmethoxy)quinoxaline-6-carboxamide] |  |  | 2 | 99 | < 100 | 
N#CCCOc1nc2ccc(C(=O)NCCCc3ncc[nH]3)cc2nc1-c1ccc(F)cc1 [Compound I-496, 2-(2-cyanoethoxy)-3-(4-fluorophenyl)-N-[3-(1H-imidazol-2-yl)propyl]quinoxaline-6-carboxamide] |  |  | > 99 | 70 | 100 to 500 | 
CNC1CC(Oc2nc3ccc(C(=O)NCCCc4ncc[nH]4)cc3nc2-c2ccc(F)cc2)C1 (stereo not drawn) [Compound I-331, 3-(4-fluorophenyl)-N-[3-(1H-imidazol-2-yl)propyl]-2-[3-(methylamino)cyclobutoxy]quinoxaline-6-carboxamide] | < 100 | > 99 | 2 |  |  | 
O=C(NCCCn1ccnc1)c1ccc2nc(N3CCC(N4CCOCC4)C3)c(-c3ccccc3)nc2c1 (stereo not drawn) [Compound I-267, N-[3-(1H-imidazol-1-yl)propyl]-2-[3-(morpholin-4-yl)pyrrolidin-1-yl]-3-phenylquinoxaline-6-carboxamide] | 100 to 500 | 81 |  |  |  | -7
O=C(NCCCn1ccnc1)c1ccc2nc(CN3CCOCC3)c(-c3ccccc3)nc2c1 [Compound I-88, N-[3-(1H-imidazol-1-yl)propyl]-2-(morpholin-4-ylmethyl)-3-phenylquinoxaline-6-carboxamide] | 1000 to 2000 | 41 |  |  |  | -7
CC(C)(C)OC(=O)NCc1cccc(-c2nc3ccc(C(=O)NCCCn4ccnc4)cc3nc2-c2ccccc2)c1 [Compound I-152, tert-butyl[3-(6-{[3-(1H-imidazol-1-yl)propyl]carbamoyl}-3-phenylquinoxalin-2-yl)benzyl]carbamate] | 500 to 1000 | 62 |  |  |  | 3
O=C(NCCc1cccnc1)c1ccc2nc(-c3ccc(F)cc3)c(-c3ccc(F)cc3)nc2c1 [Compound I-269, 2,3-bis(4-fluorophenyl)-N-[2-(pyridin-3-yl)ethyl]quinoxaline-6-carboxamide] | 100 to 500 | 73 |  |  |  | 0
O=C(CCCn1ccnc1)Nc1ccc2nc(-c3ccc(F)cc3)c(-c3ccc(F)cc3)nc2c1 [Compound I-72, N-[2,3-Bis(4-fluorophenyl)quinoxalin-6-yl]-4-(1H-imidazol-1-yl)butanamide] | 1000 to 2000 | 46 |  |  |  | 2
